According to patent US11072588B2, “Barbituric acid derivatives comprising cationic and lipophilic groups” (UNIVERSITETET I TROMSØ—NORGES ARKTISKE UNIVERSITET, priority 2017, dated 2021):
≈ marks a conversion by molar mass, not a printed value.

How the values were obtained:
[1] = tested on: S. aureus IHT 99040; assay: MIC, multi-resistant clinical isolate; assay type: cell-based, Staphylococcus aureus; conditions: for selectivity index (EC50/MIC): RBC EC50 / MIC; for MIC: Staphylococcus aureus, IHT99040, read-out: Antimicrobial activity (MIC)
Method: (§1) Working solutions of the test derivatives were prepared with up to 100% DMSO and stored at −20° C. If necessary, the solutions were heated to 40-80° C. before testing to facilitate complete dissolution. Double-distilled water was used in all dilutions prepared. […] A microdilution susceptibility test was used for MIC determination according to Clinical and Laboratory Standards Institute, “Methods for Dilution Antimicrobial Sisceptibility Tests for Bacteria That Graw Aerobically”, Approved Standard M07-A9, edition 2012, with modifications as described by Igumnova et al (Bioorg Med Chem, 2016, 24 (22), 5884-5894).
(§2) Briefly, the bacterial inoculum was adjusted to approximately 2.5-3×10^4 cells/mL in Mueller-Hinton broth (MHB, Difco Laboratories, USA), and incubated in a ratio of 1:1 with test derivatives in polystyrene 96-well flat-bottom microplates (NUNC, Roskilde, Denmark). Positive growth control (without test derivatives) and negative control (without bacteria) were included. The reference antibiotic was oxytetracycline hydrochloride (Sigma Aldrich, Saint Louis, Mo., USA). The microplates were incubated in an EnVision microplate reader (Perkin-Elmer, Turku, Finland) placed in an incubator set to 35° C. for 48 h. The MIC value was defined as the lowest concentration of derivative resulting in no bacterial growth as determined by OD600 measurement. All derivatives were tested in three parallels.
(§3) The MIC was determined as explained above with some exceptions; working solutions of test derivatives were prepared from concentrated DMSO stocks stored at room temperature, the density of the bacterial inoculum was increased 40× to 1-1.2×10^6 cells/mL, enterococci were incubated in Brain Heart Infusion broth (BHIB, Difco Laboratories, USA), the microplates were incubated for 24 h, and the derivatives were tested in four parallels.

[2] = tested on: S. aureus N315; assay: MIC, multi-resistant clinical isolate; assay type: cell-based, Staphylococcus aureus; conditions: for selectivity index (EC50/MIC): RBC EC50 / MIC, S. aureus N315; for MIC: Staphylococcus aureus, N315, read-out: Antimicrobial activity (MIC)
Method: as §1, §2, §3

[3] = tested on: S. aureus strain WIS; assay: MIC, multi-resistant clinical isolate; assay type: cell-based, Staphylococcus aureus; conditions: for selectivity index (EC50/MIC): RBC EC50 / MIC, S. aureus strain WIS; for MIC: Staphylococcus aureus, read-out: Antimicrobial activity (MIC)
Method: as §1, §2, §3

[4] = tested on: S. aureus NCTC 10442; assay: MIC, multi-resistant clinical isolate; assay type: cell-based, Staphylococcus aureus; conditions: for selectivity index (EC50/MIC): RBC EC50 / MIC, S. aureus NCTC 10442; for MIC: Staphylococcus aureus, NCTC10442, read-out: Antimicrobial activity (MIC)
Method: as §1, §2, §3

[5] = tested on: S. aureus strain 85/2082; assay: MIC, multi-resistant clinical isolate; assay type: cell-based, Staphylococcus aureus; conditions: for selectivity index (EC50/MIC): RBC EC50 / MIC, S. aureus strain 85/2082; for MIC: Staphylococcus aureus, 85/2082, read-out: Antimicrobial activity (MIC)
Method: as §1, §2, §3

[6] = tested on: S. epidermidis; assay: Anti-biofilm activity (inhibition of biofilm formation); assay type: cell-based; conditions: Staphylococcus epidermidis, read-out: Anti-biofilm IC50
[7] = tested on: E. coli 50579417; assay: MIC, multi-resistant clinical isolate; assay type: cell-based, Escherichia coli; conditions: for MIC: Escherichia coli, read-out: Antimicrobial activity (MIC); for selectivity index (EC50/MIC): RBC EC50 / MIC
Method: as §1, §2, §3

[8] = tested on: E. coli 50739822; assay: MIC, multi-resistant clinical isolate; assay type: cell-based, Escherichia coli; conditions: for MIC: Escherichia coli, read-out: Antimicrobial activity (MIC); for selectivity index (EC50/MIC): RBC EC50 / MIC
Method: as §1, §2, §3

[9] = tested on: E. coli 50676002; assay: MIC, multi-resistant clinical isolate; assay type: cell-based, Escherichia coli; conditions: for MIC: Escherichia coli, 50676002, read-out: Antimicrobial activity (MIC); for selectivity index (EC50/MIC): RBC EC50 / MIC, E. coli 50676002
Method: as §1, §2, §3

[10] = tested on: E. coli 50857972; assay: MIC, multi-resistant clinical isolate; assay type: cell-based, Escherichia coli; conditions: for MIC: Escherichia coli, read-out: Antimicrobial activity (MIC); for selectivity index (EC50/MIC): RBC EC50 / MIC
Method: as §1, §2, §3

[11] = tested on: E. coli 50639799; assay: MIC, multi-resistant clinical isolate; assay type: cell-based, Escherichia coli; conditions: for MIC: Escherichia coli, read-out: Antimicrobial activity (MIC); for selectivity index (EC50/MIC): RBC EC50 / MIC
Method: as §1, §2, §3

[12] = tested on: K. pneumoniae 50531633; assay: MIC, multi-resistant clinical isolate; assay type: cell-based, Klebsiella pneumoniae; conditions: K. pneumoniae 50531633, resistant to colistin; for MIC: Klebsiella pneumoniae, 24 h, read-out: Antimicrobial activity (MIC); for selectivity index (EC50/MIC): RBC EC50 / MIC
Method: as §1, §2, §3

[13] = tested on: K. pneumoniae 50667959; assay: MIC, multi-resistant clinical isolate; assay type: cell-based, Klebsiella pneumoniae; conditions: for MIC: Klebsiella pneumoniae, read-out: Antimicrobial activity (MIC); for selectivity index (EC50/MIC): RBC EC50 / MIC
Method: as §1, §2, §3

[14] = tested on: K. pneumoniae K66-45; assay: MIC, multi-resistant clinical isolate; assay type: cell-based, Klebsiella pneumoniae; conditions: for MIC: Klebsiella pneumoniae, K6645, read-out: Antimicrobial activity (MIC); for selectivity index (EC50/MIC): RBC EC50 / MIC, K. pneumoniae K66-45
Method: as §1, §2, §3

[15] = tested on: P. aeruginosa K34-7; assay: MIC, multi-resistant clinical isolate; assay type: cell-based, Pseudomonas aeruginosa; conditions: for MIC: Pseudomonas aeruginosa, K347, read-out: Antimicrobial activity (MIC); for selectivity index (EC50/MIC): RBC EC50 / MIC, P. aeruginosa K34-7
Method: as §1, §2, §3

[16] = tested on: P. aeruginosa K34-73; assay: MIC, multi-resistant clinical isolate; assay type: cell-based, Pseudomonas aeruginosa; conditions: for MIC: Pseudomonas aeruginosa, K3473, read-out: Antimicrobial activity (MIC); for selectivity index (EC50/MIC): RBC EC50 / MIC, P. aeruginosa K34-73
Method: as §1, §2, §3

[17] = tested on: P. aeruginosa 50692172; assay: MIC, multi-resistant clinical isolate; assay type: cell-based, Pseudomonas aeruginosa; conditions: for MIC: Pseudomonas aeruginosa, read-out: Antimicrobial activity (MIC); for selectivity index (EC50/MIC): RBC EC50 / MIC
Method: as §1, §2, §3

[18] = tested on: P. aeruginosa 50692520; assay: MIC, multi-resistant clinical isolate; assay type: cell-based, Pseudomonas aeruginosa; conditions: for MIC: Pseudomonas aeruginosa, read-out: Antimicrobial activity (MIC); for selectivity index (EC50/MIC): RBC EC50 / MIC
Method: as §1, §2, §3

[19] = tested on: P. aeruginosa K44-24; assay: MIC, multi-resistant clinical isolate; assay type: cell-based, Pseudomonas aeruginosa; conditions: for MIC: Pseudomonas aeruginosa, K4424, read-out: Antimicrobial activity (MIC); for selectivity index (EC50/MIC): RBC EC50 / MIC
Method: as §1, §2, §3

[20] = tested on: Pseudomonas aeruginosa PA01, DSM 19880 (ATCC 15692); assay: MIC assay, antibiotic susceptible reference strain; assay type: cell-based; conditions: Pseudomonas aeruginosa, read-out: Antimicrobial activity (MIC) P. a
Method: as §1, §2

[21] = tested on: Corynebacterium glutamicum ATCC 13032; assay: MIC assay, antibiotic susceptible reference strain; assay type: cell-based; conditions: Corynebacterium glutamicum, ATCC13032, read-out: Antimicrobial activity (MIC) C. g
Method: as §1, §2

[22] = tested on: Staphylococcus aureus ATCC 9144; assay: MIC assay, antibiotic susceptible reference strain; assay type: cell-based; conditions: Staphylococcus aureus, ATCC9144, read-out: Antimicrobial activity (MIC) S. a
Method: as §1, §2

[23] = tested on: Escherichia coli ATCC 25922; assay: MIC assay, antibiotic susceptible reference strain; assay type: cell-based; conditions: Escherichia coli, ATCC25922, read-out: Antimicrobial activity (MIC) E. c
Method: as §1, §2

[24] = tested on: K. pneumoniae 50625602; assay: MIC, multi-resistant clinical isolate; assay type: cell-based, Klebsiella pneumoniae
Method: as §1, §2, §3

Structure (SMILES): NCCCCN1C(=O)N(CCCCN)C(=O)C(Cc2cc(Br)cc(Br)c2)(Cc2cc(Br)cc(Br)c2)C1=O [7(ii)]
- selectivity index (EC50/MIC) [1]: (21)
- MIC [1]: 4 µg/mL (≈ 5.22 µM)
- selectivity index (EC50/MIC) [2]: (21)
- MIC [2]: 4 µg/mL (≈ 5.22 µM)
- selectivity index (EC50/MIC) [3]: (21)
- MIC [3]: 4 µg/mL (≈ 5.22 µM)
- selectivity index (EC50/MIC) [4]: (21)
- MIC [4]: 4 µg/mL (≈ 5.22 µM)
- selectivity index (EC50/MIC) [5]: (21)
- MIC [5]: 4 µg/mL (≈ 5.22 µM)
- IC50 [6]: 6 µg/mL (≈ 7.83 µM)
- MIC [7]: 8 µg/mL (≈ 10.4 µM)
- selectivity index (EC50/MIC) [7]: (10)
- MIC [8]: 8 µg/mL (≈ 10.4 µM)
- selectivity index (EC50/MIC) [8]: (10)
- MIC [9]: 8 µg/mL (≈ 10.4 µM)
- selectivity index (EC50/MIC) [9]: (10)
- MIC [10]: 8 µg/mL (≈ 10.4 µM)
- selectivity index (EC50/MIC) [10]: (10)
- MIC [11]: 8 µg/mL (≈ 10.4 µM)
- selectivity index (EC50/MIC) [11]: (10)
- MIC [12]: 8 µg/mL (≈ 10.4 µM)
- selectivity index (EC50/MIC) [12]: (10)
- MIC [13]: 16 µg/mL (≈ 20.9 µM)
- selectivity index (EC50/MIC) [13]: (5)
- MIC [14]: 16 µg/mL (≈ 20.9 µM)
- selectivity index (EC50/MIC) [14]: (5)
- MIC [15]: 16 µg/mL (≈ 20.9 µM)
- selectivity index (EC50/MIC) [15]: (5)
- MIC [16]: 16 µg/mL (≈ 20.9 µM)
- selectivity index (EC50/MIC) [16]: (5)
- MIC [17]: 16 µg/mL (≈ 20.9 µM)
- selectivity index (EC50/MIC) [17]: (5)
- MIC [18]: 16 µg/mL (≈ 20.9 µM)
- selectivity index (EC50/MIC) [18]: (5)
- MIC [19]: 16 µg/mL (≈ 20.9 µM)
- selectivity index (EC50/MIC) [19]: (5)
- MIC [20]: 8 µg/mL (≈ 10.4 µM)
- MIC [21]: 1 µg/mL (≈ 1.31 µM)
- MIC [22]: 4 µg/mL (≈ 5.22 µM)
- MIC [23]: 4 µg/mL (≈ 5.22 µM)

Structure (SMILES): NCCCCN1C(=O)N(CCCCN)C(=O)C(Cc2cc(C(F)(F)F)cc(C(F)(F)F)c2)(Cc2cc(C(F)(F)F)cc(C(F)(F)F)c2)C1=O [7(vi)]
- selectivity index (EC50/MIC) [1]: (11)
- MIC [1]: 16 µg/mL (≈ 22.1 µM)
- selectivity index (EC50/MIC) [2]: (11)
- MIC [2]: 16 µg/mL (≈ 22.1 µM)
- selectivity index (EC50/MIC) [3]: (11)
- MIC [3]: 16 µg/mL (≈ 22.1 µM)
- selectivity index (EC50/MIC) [4]: (11)
- MIC [4]: 16 µg/mL (≈ 22.1 µM)
- selectivity index (EC50/MIC) [5]: (11)
- MIC [5]: 16 µg/mL (≈ 22.1 µM)
- MIC [7]: 16 µg/mL (≈ 22.1 µM)
- selectivity index (EC50/MIC) [7]: (11)
- MIC [8]: 16 µg/mL (≈ 22.1 µM)
- selectivity index (EC50/MIC) [8]: (11)
- MIC [9]: 16 µg/mL (≈ 22.1 µM)
- selectivity index (EC50/MIC) [9]: (11)
- MIC [10]: 8 µg/mL (≈ 11.1 µM)
- selectivity index (EC50/MIC) [10]: (23)
- MIC [11]: 16 µg/mL (≈ 22.1 µM)
- selectivity index (EC50/MIC) [11]: (11)
- MIC [12]: 32 µg/mL (≈ 44.3 µM)
- selectivity index (EC50/MIC) [12]: (6)
- MIC [13]: 32 µg/mL (≈ 44.3 µM)
- selectivity index (EC50/MIC) [13]: (6)
- MIC [14]: 32 µg/mL (≈ 44.3 µM)
- selectivity index (EC50/MIC) [14]: (6)
- MIC ([24]; Klebsiella pneumoniae, read-out: Antimicrobial activity (MIC)): 32 µg/mL (≈ 44.3 µM)
- selectivity index (EC50/MIC) ([24]; RBC EC50 / MIC): (6)
- MIC [15]: 32 µg/mL (≈ 44.3 µM)
- selectivity index (EC50/MIC) [15]: (6)
- MIC [16]: 32 µg/mL (≈ 44.3 µM)
- selectivity index (EC50/MIC) [16]: (6)
- MIC [17]: 32 µg/mL (≈ 44.3 µM)
- selectivity index (EC50/MIC) [17]: (6)
- MIC [18]: 32 µg/mL (≈ 44.3 µM)
- selectivity index (EC50/MIC) [18]: (6)
- MIC [19]: 32 µg/mL (≈ 44.3 µM)
- selectivity index (EC50/MIC) [19]: (6)
- MIC [20]: 8 µg/mL (≈ 11.1 µM)
- MIC [21]: 1 µg/mL (≈ 1.38 µM)
- MIC [22]: 8 µg/mL (≈ 11.1 µM)
- MIC [23]: 8 µg/mL (≈ 11.1 µM)
